What follows are molecules tested against T1, Lp-PLA2 in human plasma (Homo sapiens, UniProt Q13093) (assay: Lp-PLA2 human plasma assay (Thio-PAF assay)). Settings: pooled human plasma; read-out: pIC50 values in the thio-PAF assay (converted).
T1 construct: from tissue; host or cells: pooled human plasma
T1 sequence (Q13093 22-441): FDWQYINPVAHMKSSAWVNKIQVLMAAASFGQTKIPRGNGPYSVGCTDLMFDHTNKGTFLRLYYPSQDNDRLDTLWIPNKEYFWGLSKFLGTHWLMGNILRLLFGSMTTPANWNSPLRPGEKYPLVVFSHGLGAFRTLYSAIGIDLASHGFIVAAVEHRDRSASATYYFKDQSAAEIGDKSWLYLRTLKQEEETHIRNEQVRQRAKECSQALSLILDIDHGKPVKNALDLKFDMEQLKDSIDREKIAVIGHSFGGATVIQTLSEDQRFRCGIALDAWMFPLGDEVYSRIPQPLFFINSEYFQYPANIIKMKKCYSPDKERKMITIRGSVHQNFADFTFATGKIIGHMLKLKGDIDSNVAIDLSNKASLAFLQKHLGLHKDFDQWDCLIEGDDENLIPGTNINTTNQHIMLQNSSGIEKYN
Format: biochemical
Excerpt: The human plasma assay utilizes a thioester analog of PAF (phosphatidylcholine), where hydrolysis yields to the formation of a phospholipid containing a free thiol group. The amount of thiol is quantitated continuously by reacting with CPM (7-diethylamino-3-(4′-maleimidylphenyl)-4-methylcoumarin), a maleimide which increases in fluoresence after Michael addition of thiols. This assay may detect the activity of Lp-PLA2 in human plasma, as determined by specific inhibition by Lp-PLA2 inhibitors.
The thio-PAF assay was run as a quenched 15 μL assay. Compounds source plate was prepared by making 1:3 (by volume) serial dilution of the compounds into pure DMSO on 384-well microplate. 0.01 μL of compounds on compound source plate were transferred to 384 well Greiner 784076 (black) low-volume plates by ECHO liquid dispenser. 8 μL pooled human plasma, which was previously aliquoted and frozen, was added. Plates were centrifuged for 10 sec at 500 rpm. After 30 minutes preincubation, 2 μL of substrate solution comprising 2.5 mM 2-thio-PAF [from ethanol stock], 32 μM CPM [from a DMSO stock] and 3.2 mM NEM (N-ethylmaleimide) [made fresh daily in DMSO] in assay buffer of 50 mM HEPES, pH 7.4, 150 mM NaCl, 1 mM CHAPS was added to 384 well Greiner 784076 (black) low-volume plates by BRAVO liquid handling station. After 2 mins, reaction was quenched with 5 μL of 5% aqueous trifluoroacetic acid (TFA). Plates were covered to protect from light and incubated for 40 min at room temperature. Plates were read at ex: 380/em: 485 using-Envision microplate reader. pIC50 data, curve and QC analysis was conducted by using XLFit module in Excel.

Row | SMILES | IC50 [nM]
1 | CC1CCn2c(cc(OCc3ccc(F)cc3)nc2=O)N1C (stereo not shown) [E9, 8-((4-fluorobenzyl)oxy)-1,2-dimethyl-3,4-dihydro-1H-pyrimido[1,6-a]pyrimidin-6(2H)-one] | ≤ 100
2 | CC1CCn2c(cc(OCc3cccc(C#N)c3)nc2=O)N1C (stereo not shown) [E10, 3-(((1,2-dimethyl-6-oxo-2,3,4,6-tetrahydro-1H-pyrimido[1,6-a]pyrimidin-8-yl)oxy)methyl)benzonitrile] | ≤ 100
3 | CC1CCn2c(cc(OCc3cccc(F)c3)nc2=O)N1C (stereo not shown) [E12, 8-((3-fluorobenzyl)oxy)-1,2-dimethyl-3,4-dihydro-1H-pyrimido[1,6-a]pyrimidin-6(2H)-one] | ≤ 100
4 | C[C@@H]1CCn2c(cc(OCc3cc(F)c(F)c(F)c3)nc2=O)N1C [E16, (R)-1,2-dimethyl-8-((3,4,5-trifluorobenzyl)oxy)-3,4-dihydro-1H-pyrimido[1,6-a]pyrimidin-6(2H)-one] | ≤ 100
5 | C[C@@H]1CCn2c(cc(OCc3cccc(F)c3F)nc2=O)N1C [E18, (R)-8-((2,3-difluorobenzyl)oxy)-1,2-dimethyl-3,4-dihydro-1H-pyrimido[1,6-a]pyrimidin-6(2H)-one] | ≤ 100
6 | [2H]C([2H])(Oc1cc2n(c(=O)n1)CC[C@@H](C)N2C)c1cccc(F)c1F [E19, (R)-8-((2,3-difluorophenyl)dideuteromethoxy)-1,2-dimethyl-3,4-dihydro-1H-pyrimido[1,6-a]pyrimidin-6(2H)-one] | ≤ 100
7 | C[C@@H]1CCn2c(cc(OCc3ccc(F)cc3)nc2=O)N1C [E20, (R)-8-((4-fluorobenzyl)oxy)-1,2-dimethyl-3,4-dihydro-1H-pyrimido[1,6-a]pyrimidin-6(2H)-one] | ≤ 100
8 | C[C@@H]1CCn2c(cc(OCc3ccc(F)cc3)nc2=O)N1 [E27, (R)-8-((4-fluorobenzyl)oxy)-2-methyl-3,4-dihydro-1H-pyrimido[1,6-a]pyrimidin-6(2H)-one] | ≤ 100
9 | [2H]C([2H])(Oc1cc2n(c(=O)n1)CC[C@H](C)N2C)c1cc(F)c(F)c(F)c1 [E36, (S)-8-(dideutero(3,4,5-trifluorophenyl)methoxy)-1,2-dimethyl-3,4-dihydro-1H-pyrimido[1,6-a]pyrimidin-6(2H)-one] | ≤ 100
10 | C[C@H]1CCn2c(cc(OCc3ccc(F)c(F)c3)nc2=O)N1 [E40, (S)-8-((3,4-difluorobenzyl)oxy)-2-methyl-3,4-dihydro-1H-pyrimido[1,6-a]pyrimidin-6(2H)-one] | ≤ 100
11 | C[C@H]1CCn2c(cc(OCc3cc(F)c(F)cc3F)nc2=O)N1C [E42, (S)-1,2-dimethyl-8-((2,4,5-trifluorobenzyl)oxy)-3,4-dihydro-1H-pyrimido[1,6-a]pyrimidin-6(2H)-one] | ≤ 100
12 | C[C@H]1CCn2c(cc(OCc3cc(F)c(F)c(F)c3)nc2=O)N1 [E45, (S)-2-methyl-8-((3,4,5-trifluorobenzyl)oxy)-3,4-dihydro-1H-pyrimido[1,6-a]pyrimidin-6(2H)-one] | ≤ 10
13 | [2H]C([2H])(Oc1cc2n(c(=O)n1)CC[C@H](C)N2C)c1cc(F)cc(F)c1 [E49, (S)-8-((3,5-difluorophenyl)dideuteromethoxy)-1,2-dimethyl-3,4-dihydro-1H-pyrimido[1,6-a]pyrimidin-6(2H)-one] | ≤ 100
14 | [2H]C([2H])(Oc1cc2n(c(=O)n1)CC[C@@H](C)N2C)c1cc(F)cc(F)c1 [E50, (R)-8-((3,5-difluorophenyl)dideuteromethoxy)-1,2-dimethyl-3,4-dihydro-1H-pyrimido[1,6-a]pyrimidin-6(2H)-one] | ≤ 100
15 | CCN1c2cc(OCc3cc(F)c(F)cc3F)nc(=O)n2CC[C@@H]1C [E52, (S)-1-ethyl-2-methyl-8-((2,4,5-trifluorobenzyl)oxy)-3,4-dihydro-1H-pyrimido[1,6-a]pyrimidin-6(2H)-one] | ≤ 100
16 | CCN1c2cc(OCc3cccc(F)c3F)nc(=O)n2CC[C@@H]1C [E53, (S)-8-((2,3-difluorobenzyl)oxy)-1-ethyl-2-methyl-3,4-dihydro-1H-pyrimido[1,6-a]pyrimidin-6(2H)-one] | ≤ 100
17 | [2H]C([2H])(Oc1cc2n(c(=O)n1)CCC(C)(C)N2C)c1cc(F)c(F)c(F)c1 [E55, 8-(dideutero(3,4,5-trifluorophenyl)methoxy)-1,2,2-trimethyl-3,4-dihydro-1H-pyrimido[1,6-a]pyrimidin-6(2H)-one] | ≤ 100
18 | C[C@H]1CCn2c(cc(OCc3cc(F)c(Oc4ccc(Cl)c(F)c4)c(F)c3)nc2=O)N1C [E58, (S)-8-((4-(4-chloro-3-fluorophenoxy)-3,5-difluorobenzyl)oxy)-1,2-dimethyl-3,4-dihydro-1H-pyrimido[1,6-a]pyrimidin-6(2H)-one] | ≤ 10
19 | C[C@H]1CCn2c(cc(OCc3cc(F)c(Oc4cccc(Cl)c4)c(F)c3)nc2=O)N1C [E59, (S)-8-((4-(3-chlorophenoxy)-3,5-difluorobenzyl)oxy)-1,2-dimethyl-3,4-dihydro-1H-pyrimido[1,6-a]pyrimidin-6(2H)-one] | ≤ 100

The next lines start with the values.

Row | IC50 [nM] | SMILES
20 | ≤ 10 | C[C@H]1CCn2c(cc(OCc3ccc(Oc4ccc(C(F)(F)F)cc4)c(C#N)c3)nc2=O)N1C [E61, (S)-5-(((1,2-dimethyl-6-oxo-2,3,4,6-tetrahydro-1H-pyrimido[1,6-a]pyrimidin-8-yl)oxy)methyl)-2-(4-(trifluoromethyl)phenoxy)benzonitrile]
21 | ≤ 10 | C[C@@H]1CCn2c(cc(OCc3cc(F)c(Oc4ccc(Cl)c(F)c4)c(F)c3)nc2=O)N1C [E63, (R)-8-((4-(4-chloro-3-fluorophenoxy)-3,5-difluorobenzyl)oxy)-1,2-dimethyl-3,4-dihydro-1H-pyrimido[1,6-a]pyrimidin-6(2H)-one]
22 | ≤ 10 | C[C@@H]1CCn2c(cc(OCc3cc(F)c(Oc4cccc(Cl)c4)c(F)c3)nc2=O)N1C [E64, (R)-8-((4-(3-chlorophenoxy)-3,5-difluorobenzyl)oxy)-1,2-dimethyl-3,4-dihydro-1H-pyrimido[1,6-a]pyrimidin-6(2H)-one]
23 | ≤ 10 | C[C@H]1CCn2c(cc(OCc3ccc(Oc4ccc(Cl)c(F)c4)c(C#N)c3)nc2=O)N1C [E66, (S)-2-(4-chloro-3-fluorophenoxy)-5-(((1,2-dimethyl-6-oxo-2,3,4,6-tetrahydro-1H-pyrimido[1,6-a]pyrimidin-8-yl)oxy)methyl)benzonitrile]
24 | ≤ 100 | CN1c2cc(OCc3cccc(F)c3F)nc(=O)n2CCC1(C)C [E72, 8-((2,3-difluorobenzyl)oxy)-1,2,2-trimethyl-3,4-dihydro-1H-pyrimido[1,6-a]pyrimidin-6(2H)-one]
25 | ≤ 100 | CN1c2cc(OCc3cc(F)cc(F)c3)nc(=O)n2CCC1(C)C [E74, 8-((3,5-difluorobenzyl)oxy)-1,2,2-trimethyl-3,4-dihydro-1H-pyrimido[1,6-a]pyrimidin-6(2H)-one]
26 | ≤ 100 | C[C@@H]1CCn2c(cc(OCc3cccc(C#N)c3)nc2=O)N1C [E127, (R)-3-(((1,2-dimethyl-6-oxo-2,3,4,6-tetrahydro-1H-pyrimido[1,6-a]pyrimidin-8-yl)oxy)methyl)benzonitrile]
27 | ≤ 100 | C[C@H]1CCn2c(cc(OCc3cccc(C#N)c3)nc2=O)N1C [E128, (S)-3-(((1,2-dimethyl-6-oxo-2,3,4,6-tetrahydro-1H-pyrimido[1,6-a]pyrimidin-8-yl)oxy)methyl)benzonitrile]
28 | ≤ 100 | C[C@@H]1CCn2c(cc(OCc3cccc(F)c3)nc2=O)N1C [E130, (R)-8-((3-fluorobenzyl)oxy)-1,2-dimethyl-3,4-dihydro-1H-pyrimido[1,6-a]pyrimidin-6(2H)-one]
